Test results: article PMC9118212 (ACS Omega, 2022)
Where “and” joins values, the source holds several entries; their conditions need not be identical. Equal values may be shown once.

What was measured:
[1] = system: DNA-1 (5′-GTA AGA TGA TTC-3′ and 5′-GAA TCA TCT TAC-3′); assay type: binding; details: pH 7.2
plasmid DNA pCR 2.1 = experiment: Electrophoretic mobility shift assay; assay type: binding; details: 100 ng plasmid, 0.1 nmol compound, 2 h at 37 °C, 1% agarose gel
HeLa (cervical cancer) = experiment: MTT cytotoxicity assay, HeLa; assay type: cell-based; details: Homo sapiens, 48 h, read-out: IC50 ± SD
LS-180 (colon cancer) = experiment: MTT cytotoxicity assay, LS-180; assay type: cell-based; details: Homo sapiens, LS180, 48 h, read-out: IC50 ± SD
A-549 (lung cancer) = experiment: MTT cytotoxicity assay, A-549; assay type: cell-based; details: Homo sapiens, A549, 48 h, read-out: IC50 ± SD
[2] = system: ARPE-19 (retinal epithelium), nontumor; experiment: MTT cytotoxicity assay, ARPE-19; assay type: cell-based; details: Homo sapiens, ARPE-19, 48 h, read-out: IC50 ± SD

## COc1ccc2cc1Oc1ccc(cc1)C[C@H]1c3cc(c(OC)cc3CCN1C)Oc1c(OC)c(OC)cc3c1[C@H](C2)N(C)CC3 [tetrandrine, S,S-(+)-tetrandrine]
[1]
  Stern–Volmer constant (KSV): 7.34 × 10^3
Plasmid DNA pCR 2.1
  Effect on electrophoretic mobility of plasmid DNA: reduce the mobility of the plasmid
HeLa (cervical cancer)
  IC50: 16.6 µg/mL and 26.7 µM
LS-180 (colon cancer)
  IC50: 6.43 µg/mL and 10.3 µM
A-549 (lung cancer)
  IC50: 12.1 µg/mL and 19.4 µM
[2]
  IC50: 8.45 µg/mL and 13.6 µM
